Data published in PubChem BioAssay AID504520 (The Scripps Research Institute Molecular Screening Center, 2011).
The source made the active and inactive calls. No rule for the calls is given here.

Assays:
Experiment in all cases: competitive ABPP of LYPLA1 versus anti-target hydrolases – fluorescence, gel-based ABPP, mouse proteome, late-stage follow-up (AID 504520);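 also: soluble proteome from BW5147 murine T cells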
Settings in all cases: FP-rhodamine fluorescence, stronger effect = higher value
LYPLA2 = test system: LYPLA2
ESD = test system: ESD
LYPLA1 = test system: LYPLA1
ABHD11 = test system: ABHD11
[1] = biological target: Platelet-activating factor acetylhydrolase 2, cytoplasmic (Mus musculus) (UniProt Q8VDG7)
Platelet-activating factor acetylhydrolase 2, cytoplasmic (Mus musculus), sequence (Q8VDG7 whole entry, looked up): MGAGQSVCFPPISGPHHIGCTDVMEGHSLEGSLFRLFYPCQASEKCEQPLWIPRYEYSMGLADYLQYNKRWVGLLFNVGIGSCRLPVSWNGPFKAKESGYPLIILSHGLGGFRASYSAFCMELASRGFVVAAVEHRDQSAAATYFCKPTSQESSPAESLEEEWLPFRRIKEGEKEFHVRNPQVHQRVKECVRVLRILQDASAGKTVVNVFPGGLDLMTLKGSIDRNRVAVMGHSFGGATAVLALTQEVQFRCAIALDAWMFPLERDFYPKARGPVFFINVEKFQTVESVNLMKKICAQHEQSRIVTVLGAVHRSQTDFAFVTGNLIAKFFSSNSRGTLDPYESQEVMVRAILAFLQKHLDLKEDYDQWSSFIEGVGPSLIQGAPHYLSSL

| SMILES | inhibition (LYPLA2; at 0.75 µM) | inhibition (LYPLA2; inhibition, at 0.03 µM) | inhibition (LYPLA2; inhibition, at 0.15 µM) | inhibition (ESD; at 0.75 µM) | inhibition (ESD; inhibition, at 0.03 µM) | inhibition (ESD; inhibition, at 0.15 µM) | inhibition (LYPLA1; at 0.75 µM) | inhibition (LYPLA1; inhibition, at 0.03 µM) | inhibition (LYPLA1; inhibition, at 0.15 µM) | inhibition (ABHD11; at 0.75 µM) | inhibition (ABHD11; inhibition, at 0.03 µM) | inhibition (ABHD11; inhibition, at 0.15 µM) | inhibition ([1]; PAFAH2, at 0.75 µM) | inhibition ([1]; PAFAH2, inhibition, at 0.03 µM) | inhibition ([1]; PAFAH2, inhibition, at 0.15 µM) |
| --- | --- | --- | --- | --- | --- | --- | --- | --- | --- | --- | --- | --- | --- | --- | --- |
| O=C(N(c1ccccc1)c1cccc(Br)c1)n1ncc(C(O)(c2ccccc2)c2ccccc2)n1 | 0% (inactive) | 0% | 0% | 0% (inactive) | 0% | 0% | 0% (inactive) | 0% | 0% | 100% | 0% | 100% | 0% (inactive) | 0% | 0% |
| COCC1CCCCN1C(=O)n1ncc(C(O)(c2ccccc2)c2ccccc2)n1 (stereo not given) | 0% (inactive) | 0% | 0% | 0% (inactive) | 0% | 0% | 0% (inactive) | 0% | 0% | 100% | 100% | 100% | 0% (inactive) | 0% | 0% |
